Reference: US20260200990A1, “MODIFIED LONG PEPTIDES SUITABLE FOR USE IN IMMUNISATION” (ISABELLA PHARMA B.V., priority 2022, published 2026)
Ends that are not written are not given here.

Tested on: T cells cultured from PBMC from healthy donors
Experiment: T cell induction by PRAME-based SLPs, IFNy ELISpot (test 1 and test 2)
Design: species or system human; key to ELISPOT IFNy / ELISPOT IFNy, summary of the results in the table: − (negative); + (positive); When at least one donor had a positive response, this is denoted as POS
Conditions: for ELISPOT IFNy, summary of the results in the table: Table 5, all donors; for IFNy response in in vitro human T cell cultures: summary over the donors tested
Method: The capacity of human-PRAME-based SLPs to activate T cells was studied. The biological activity of the synthesized and purified SLPs was tested using PBMC from healthy donors. Monocytes were isolated using anti-CD14 beads by magnet activated cell sorting (MACS) following the protocol of the supplier (Miltenyi Biotec). In short, PBMCs were isolated by centrifugation over a Ficoll gradient and cryopreserved. To generate dendritic cells (DCs), approximately […] thawed PBMC were used for the isolation of CD14 positive cells. The cells were cultured for three days at 37° C. in 2 ml/well of IMDM 4% human serum (HS) containing 800 U/ml GM-CSF and 500 U/ml IL-4 (Peprotech). After 3 days 1 mL/well of IMDM 4% HS with GM-CSF (2400 U/mL) and IL-4 (1500 U/mL) was added to the monocytes-derived DCs and these adhered cells were cultured for an additional 3 days. On day 6, long peptides distributed over 2 pools were added to monocyte-derived DCs of naive donors at a 13 μM concentration and incubated overnight at 37° C. The next day (day 7) peptide-loaded DCs were harvested, irradiated (1000 rad), washed and mixed in a 1:10 ratio with autologous PBMC in IMDM 8% human serum in the presence of IL-7 (10 ng/ml) and IL-12p70 (100 μg/mL).
On day 10 new DCs were generated and loaded, after 6 days, with SLPs on day 16 as described above. The next day, these peptide-loaded DCs were harvested, irradiated (1000 rad) and washed. Also the cultured T cells were harvested. Both were counted and mixed in a 1:10 ratio (DC:T) in IMDM 8% human serum in the presence of IL-7 (10 ng/ml) and IL-12p70 (100 μg/mL) for the first restimulation. On the same day, new DCs were generated as described above that were loaded with SLPs on day 23 as described above. The next day, peptide-loaded DCs were harvested, irradiated (1000 rad) and washed. Also the cultured and restimulated T cells were harvested. Both were counted and mixed in a 1:10 ratio (DC:T) in IMDM 8% human serum in the presence of IL-7 (10 ng/ml) and IL-12p70 (100 μg/mL) for the second restimulation.
On this day 24, also test 1 was started in which DCs loaded with individual SLPs were cultured with harvested T cells from restimulation 1. For test 1, DCs and harvested T cells were cultured in a 1:10 ratio for 2 days after which cells were transferred to a coated ELISpot plate (see description below). On day 24, new DCs were generated as described above that were loaded with SLPs on day 30 as described above. The next day, peptide-loaded DCs were harvested, irradiated (1000 rad) and washed. Also the cultured twice restimulated T cells were harvested. Both were counted and mixed in a 1:10 ratio (DC:T) in IMDM 8% human serum in the presence of IL-2 (30 IU/mL) and IL-12p70 (100 μg/mL) for the third restimulation.
On day 31, also test 2 was started in which DCs loaded with individual SLPs were cultured with harvested T cells from restimulation 2. For test 2, DCs and harvested T cells were cultured in a 1:10 ratio for 2 days after which cells were transferred to a coated ELISpot plate (see description below).
The T cell cultures were restimulated three times in 1-week cycles using peptide loaded autologous moDCs. After the 2nd and 3rd restimulation, reactivity towards single SLPs was tested (test 1 and test 2, respectively). Reactivity was determined by measuring IFNy production using ELISpot.
For ELISpot analysis, multiscreen plates were coated with an IFNy coating antibody overnight at 4° C. The next day, the plate was washed 4× with PBS and blocking was done using IMDM 8% HS at 37° C. for at least one hour. Each sample was tested in triplicate. As a positive control, phytoheamagglutinin (PHA, 1 μg/mL) was added to cells that were not stimulated with SLP after thawing. The plate was cultured overnight at 37° C. Thereafter, cells were discarded and the plate was washed using PBS/0.05% Tween-20. The IFNy detection antibody was diluted and added to each well and incubated for 2 hours at room temperature. […]

[1] = donor BC298, Test 1, 2 peptide pools
[2] = donor BC298, Test 2, 2 peptide pools
[3] = donor BC305, Test 1, 2 peptide pools
[4] = donor BC305, Test 2, 2 peptide pools
[5] = donor BC306, Test 1, 2 peptide pools
[6] = donor BC306, Test 2, 2 peptide pools
[7] = donor BC312, Test 1, 2 peptide pools
[8] = donor BC312, Test 2, 2 peptide pools
[9] = donor BC321, Test 1, 2 peptide pools
[10] = donor BC321, Test 2, 2 peptide pools
[11] = donor BC290, Test 1, 2 peptide pools
[12] = donor BC290, Test 2, 2 peptide pools
[13] = donor BC315, Test 1, 2 peptide pools
[14] = donor BC315, Test 2, 2 peptide pools
[15] = donor BC228, Test 1, pool of 3 peptides
[16] = donor BC228, Test 2, pool of 3 peptides
[17] = donor BC303, Test 1, pool of 3 peptides
[18] = donor BC303, Test 2, pool of 3 peptides
[19] = donor BC314, Test 1, pool of 3 peptides
[20] = donor BC314, Test 2, pool of 3 peptides
[21] = donor BC320, Test 1, pool of 3 peptides
[22] = donor BC320, Test 2, pool of 3 peptides
[23] = donor BC322, Test 1, pool of 3 peptides
[24] = donor BC322, Test 2, pool of 3 peptides
[25] = donor BC323, Test 1, pool of 3 peptides
[26] = donor BC323, Test 2, pool of 3 peptides

Sequence | ELISPOT IFNy [1] | ELISPOT IFNy [2] | ELISPOT IFNy [3] | ELISPOT IFNy [4] | ELISPOT IFNy [5] | ELISPOT IFNy [6] | ELISPOT IFNy [7] | ELISPOT IFNy [8] | ELISPOT IFNy [9] | ELISPOT IFNy [10] | ELISPOT IFNy [15] | ELISPOT IFNy [16] | ELISPOT IFNy [17] | ELISPOT IFNy [18] | ELISPOT IFNy [19] | ELISPOT IFNy [20] | ELISPOT IFNy [21] | ELISPOT IFNy [22] | ELISPOT IFNy [23] | ELISPOT IFNy [24] | further results
ALYVDSLFFLRGRLDQLLRHVMNPLETLSITNCRL (ALYVDSLFFLRGRLDQLLRHVMNPLETLSITNC(cysteinyl)RL; listed as Homo sapiens) [SEQ ID NO: 40, PRAME-based SLP, cysteinylated form tested] | − | − | − | − | − | − | − | − | + | + |  |  |  |  |  |  |  |  |  |  | ELISPOT IFNy, summary of the results in the table: POS
VLYPVPLESYEDIHGTLHLERLAYLHARLREL (listed as Homo sapiens) [SEQ ID NO: 41, PRAME-based SLP] | − | − | − | − | − | − | − | − | − | − |  |  |  |  |  |  |  |  |  |  | ELISPOT IFNy, summary of the results in the table: POS; ELISPOT IFNy [11]: −; ELISPOT IFNy [12]: −; ELISPOT IFNy [13]: +; ELISPOT IFNy [14]: +
VLSLSGVMLTDVSPEPLQALLERASATLQDLVFDE (listed as Homo sapiens) [SEQ ID NO: 50, PRAME-based SLP of WO2008118017, reference compound] | − | − | − | − | − | − | − | − | − | − | − | − | − | − | − | − | − | − | − | − | ELISPOT IFNy [11]: −; ELISPOT IFNy [12]: −; ELISPOT IFNy [13]: −; ELISPOT IFNy [14]: −; ELISPOT IFNy [25]: −; ELISPOT IFNy [26]: −; IFNy response in in vitro human T cell cultures: did not show convincing responses
LLPRELFPPLFMAAFDGRHSQTLKAMVQAWPF (listed as Homo sapiens) [SEQ ID NO: 43, PRAME-based SLP] | − | − | − | − | − | − | − | − | + | − |  |  |  |  |  |  |  |  |  |  | 
KEGACDELFSYLIEKVKRKKNVLRL (KEGAC(cysteinyl)DELFSYLIEKVKRKKNVLRL; listed as Homo sapiens) [SEQ ID NO: 39, PRAME-based SLP, cysteinylated form tested] | − | − | − | − | − | − | − | − | − | − | − | − | − | − | + | + | − | − | − | − | ELISPOT IFNy [25]: −; ELISPOT IFNy [26]: −; IFNy response in in vitro human T cell cultures: positive IFNy response
LETFKAVLDGLDVLLAQEVRPRRWKLQVLDLRK (listed as Homo sapiens) [SEQ ID NO: 45, PRAME-based SLP of WO2008118017, reference compound] | − | − | − | − | − | − | − | − | − | − | − | − | − | − | − | − | − | − | − | − | ELISPOT IFNy [25]: −; ELISPOT IFNy [26]: −; IFNy response in in vitro human T cell cultures: did not show convincing responses
LPSLSHCSQLTTLSFYGNSISISALQSLLQHLIGL (LPSLSHC(cysteinyl)SQLTTLSFYGNSISISALQSLLQHLIGL; listed as Homo sapiens) [SEQ ID NO: 44, PRAME-based SLP, cysteinylated form tested] | − | + | − | − | − | − | − | − | + | − |  |  |  |  |  |  |  |  |  |  | 
